Source: PubChem BioAssay AID2060486 (Molecular Pharmacology Branch, DTP, NCI, 2025)

Test system: IGROV1 complex spheroids (HUVEC, MSC), viability % test/control
Assay: Anticancer human tumor IGROV1 cell line growth inhibition [GQUAD];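 note: spheroids exposed to compounds for 7 days before readout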
Conditions: for IC50: curve of first compound; for viability, T/C: stronger effect = lower value
From the text: DNA G-quadruplex Stabilizer Agents in Combinations in Complex Spheroids
A high-throughput screen of multi-cell type tumor spheroids was designed to identify active combinations of DNA G-quadruplex stabilizer agents and targeted small molecules. Complex spheroids include a stromal component modeled by human endothelial cells (HUVEC) and fibroblasts modeled by human mesenchymal stem cells (MSCs). The concentration ranges selected for each drug and investigational agent were based upon clinically achievable concentrations if the clinical Cmax of the agent was known.
Compounds. The drugs and investigational agents: pidnarulex (CX-5461; NSC782164), APTO-253 (NSC789042), BRACO-19 (NSC847499), peposertib (NSC802822), ceralasertib (NSC780249), elimusertib (NSC800525), camonsertib (NSC841442), AZD-1390 (NSC803789), olaparib (NSC753686), talazoparib (NSC767125), ART-558 (NSC835418), sotorasib (NSC818433), MRTX-1133 (NSC836407), SN-38 (NSC673596), topotecan (NSC609699), etoposide (NSC141540), doxorubicin (NSC123127), gemcitabine (NSC613327), 5-fluorouracil (NSC19893), paclitaxel (NSC125973), vemurafenib (NSC761431), panobinostat (NSC761190), R-306465 (JNJ-16241199; NSC773264), adavosertib (NSC754352), TP-3654 (NSC805149), carboplatin (NSC241240), KSQ-4279 (NSC840948), and staurosporine (NSC755774) were obtained from the National Cancer Institute (NCI) Developmental Therapeutics Program Chemical Repository (34). The FDA-approved anticancer drug set is available from the NCI Developmental Therapeutics Program. […] The stock solutions were prepared in dimethyl sulfoxide (DMSO, Sigma-Aldrich, St. Louis, MO, cat. D2650) at 800-fold the tested concentration and stored at -70 degrees C prior to their use. All drugs and investigational agents were tested over a range starting from a high concentration at or near the clinical Cmax and decreasing in half-log increments. If the clinical Cmax for an agent had not been determined, the highest concentration tested was 10 microM.
2.3 Cell Culture. All cells were maintained in an incubator at 37 degrees C and 5% CO2 with 95% humidity. The PDC lines were cultured according to standard operating procedures established by the NCI PDMR. All PDCs were thawed and cultured in Matrigel-coated flasks prepared with a working solution of 1X Ham's F-12 nutrient mix, without supplementation (Invitrogen, cat. 11765054), 100 U/mL penicillin-streptomycin (Invitrogen, cat. 15140122), and 2.5% Matrigel (Corning Inc., cat. 354248) for the first three passages. The 857933-349-R-J2-PDC line was cultured in 6C/Colon 1B media, which includes advanced DMEM/F-12 (Thermo Fisher Scientific, cat. 12634028), 10 mM HEPES (Thermo Fisher Scientific, cat. 15630080), 1X GlutaMAX supplement (Thermo Fisher Scientific, cat. 35050061), 0.1 mg/mL primocin (InvivoGen, cat. ant-pm-2), 10% defined fetal bovine serum, heat inactivated (HyClone Laboratories Inc., cat. SH30070.03HI), 50% L-WRN conditioned media (ATCC, cat. CRL-3276), 1.25 mM N-Acetyl-L-cysteine (Sigma-Aldrich, cat. A9165), 10 mM nicotinamide (Sigma-Aldrich, cat. N0636), 1X B-27 supplement (Thermo Fisher Scientific, cat. 17504044), 1X N-2 supplement (Thermo Fisher Scientific, cat. 17502048), 10 microM Y-27632 dihydrochloride (Tocris Bioscience, cat. 1254), and 50 ng/mL human EGF recombinant protein (Thermo Fisher Scientific, cat. PHG0311). The 485176-168-R4-J1-PDC line was cultured in Panc media, which includes all 6C/Colon 1B media components plus 100 ng/mL human FGF-10 (Thermo Fisher Scientific, cat. 100-26), 500 nM SB-431542 (Selleckchem, cat. S1067), and gastrin (Tocris, cat. 3006).
[…]

[1] = second compound 0.0316 µM, first compound 0.0316 µM
[2] = second compound 0.0316 µM, first compound 0.1 µM
[3] = second compound 0.0316 µM, first compound 0.316 µM
[4] = second compound 0.0316 µM, first compound 1 µM
[5] = second compound 0.0316 µM, first compound 3.16 µM
[6] = second compound 0.0316 µM, first compound 10 µM
[7] = second compound 0.1 µM, first compound 0.0316 µM
[8] = second compound 0.1 µM, first compound 0.1 µM
[9] = second compound 0.1 µM, first compound 0.316 µM
[10] = second compound 0.1 µM, first compound 1 µM
[11] = second compound 0.1 µM, first compound 3.16 µM
[12] = second compound 0.1 µM, first compound 10 µM
[13] = second compound 0.316 µM, first compound 0.0316 µM
[14] = second compound 0.316 µM, first compound 0.1 µM
[15] = second compound 0.316 µM, first compound 0.316 µM
[16] = second compound 0.316 µM, first compound 1 µM
[17] = second compound 0.316 µM, first compound 3.16 µM
[18] = second compound 0.316 µM, first compound 10 µM
[19] = second compound 1 µM, first compound 0.0316 µM
[20] = second compound 1 µM, first compound 0.1 µM
[21] = second compound 1 µM, first compound 0.316 µM
[22] = second compound 1 µM, first compound 1 µM
[23] = second compound 1 µM, first compound 3.16 µM
[24] = second compound 1 µM, first compound 10 µM
[25] = second compound 3.16 µM, first compound 0.0316 µM
[26] = second compound 3.16 µM, first compound 0.1 µM
[27] = second compound 3.16 µM, first compound 0.316 µM
[28] = second compound 3.16 µM, first compound 1 µM
[29] = second compound 3.16 µM, first compound 3.16 µM
[30] = second compound 3.16 µM, first compound 10 µM
[31] = second compound 10 µM, first compound 0.0316 µM
[32] = second compound 10 µM, first compound 0.1 µM
[33] = second compound 10 µM, first compound 0.316 µM
[34] = second compound 10 µM, first compound 1 µM
[35] = second compound 10 µM, first compound 3.16 µM
[36] = second compound 10 µM, first compound 10 µM

Work on `CC(=O)O[C@H]1C(=O)[C@@]2(C)[C@H]([C@H](OC(=O)c3ccccc3)[C@]3(O)C[C@H](OC(=O)[C@H](O)[C@@H](NC(=O)c4ccccc4)c4ccccc4)C(C)=C1C3(C)C)[C@]1(OC(C)=O)CO[C@@H]1C[C@@H]2O` + CN(C)c1ccc(Nc2c3ccc(NC(=O)CCN4CCCC4)cc3nc3cc(NC(=O)CCN4CCCC4)ccc23)cc1 yielded an IC50 (second compound 0.0316 µM) of under 31.6 nM, an IC50 (second compound 0.1 µM) of under 31.6 nM and an IC50 (second compound 0.316 µM) of under 31.6 nM. It also gave an IC50 (second compound 1 µM) of under 31.6 nM, an IC50 (second compound 3.16 µM) of under 31.6 nM and an IC50 (second compound 10 µM) of under 31.6 nM. The viability, T/C [1] was 7.64%, the viability, T/C [2] was 6.24% and the viability, T/C [3] was 6.32%. The viability, T/C [4] was 5.33%, the viability, T/C [5] was 5% and the viability, T/C [6] was 6.24%. It also gave a viability, T/C [7] of 7.68%, a viability, T/C [8] of 5.09% and a viability, T/C [9] of 5.96%. For the same molecule, the viability, T/C [10] was 5.48%, the viability, T/C [11] was 6.36% and the viability, T/C [12] was 6.3%. It also gave a viability, T/C [13] of 8.36%, a viability, T/C [14] of 5.82% and a viability, T/C [15] of 5.8%. For the same molecule, the viability, T/C [16] was 5.16%, the viability, T/C [17] was 5.67% and the viability, T/C [18] was 6.87%. The viability, T/C [19] was 7.67%, the viability, T/C [20] was 6.92% and the viability, T/C [21] was 6.05%. For the same molecule, the viability, T/C [22] was 5.19%, the viability, T/C [23] was 6.15% and the viability, T/C [24] was 5.74%. The viability, T/C [25] was 6.2%, the viability, T/C [26] was 8.18% and the viability, T/C [27] was 6.89%. It also gave a viability, T/C [28] of 5.22%, a viability, T/C [29] of 6.1% and a viability, T/C [30] of 5.7%. It also gave a viability, T/C [31] of 7.12%, a viability, T/C [32] of 6.03% and a viability, T/C [33] of 5.99%. It also gave a viability, T/C [34] of 4.33%, a viability, T/C [35] of 4.7% and a viability, T/C [36] of 4.57%.

For `CC1COCCN1c1cc(-c2ccnn2C)c2ccnc(-c3ccn[nH]3)c2n1` (centres undefined) + CN(C)c1ccc(Nc2c3ccc(NC(=O)CCN4CCCC4)cc3nc3cc(NC(=O)CCN4CCCC4)ccc23)cc1, the IC50 (second compound 0.0316 µM) was 50.7 nM, the IC50 (second compound 0.1 µM) was 49.6 nM and the IC50 (second compound 0.316 µM) was 37.1 nM. It also gave an IC50 (second compound 1 µM) of 43 nM, an IC50 (second compound 3.16 µM) of under 31.6 nM and an IC50 (second compound 10 µM) of under 31.6 nM. The viability, T/C [1] was 66.2%, the viability, T/C [2] was 26.3% and the viability, T/C [3] was 12.3%. The viability, T/C [4] was 7.64%, the viability, T/C [5] was 4.82% and the viability, T/C [6] was 3.77%. The viability, T/C [7] was 66.3%, the viability, T/C [8] was 24.2% and the viability, T/C [9] was 11.8%. It also gave a viability, T/C [10] of 7.54%, a viability, T/C [11] of 5.16% and a viability, T/C [12] of 3.61%. It also gave a viability, T/C [13] of 54.9%, a viability, T/C [14] of 21.5% and a viability, T/C [15] of 9.35%. The viability, T/C [16] was 6.62%, the viability, T/C [17] was 5.67% and the viability, T/C [18] was 3.51%. The viability, T/C [19] was 57.8%, the viability, T/C [20] was 28.5% and the viability, T/C [21] was 11.7%. The viability, T/C [22] was 7.28%, the viability, T/C [23] was 5.79% and the viability, T/C [24] was 3.85%. The viability, T/C [25] was 44%, the viability, T/C [26] was 18.2% and the viability, T/C [27] was 11.2%. The viability, T/C [28] was 7.75%, the viability, T/C [29] was 4.98% and the viability, T/C [30] was 3.18%. For the same molecule, the viability, T/C [31] was 20.6%, the viability, T/C [32] was 10.5% and the viability, T/C [33] was 9.22%. It also gave a viability, T/C [34] of 5.87%, a viability, T/C [35] of 5.04% and a viability, T/C [36] of 3.72%.
